Results: patent publication US20100292306A1, “Compositions And Methods For The Treatment Of Muscular Dystrophy” (priority 2005, published 2010)
Residues, ends and D or L forms follow the SMILES beside them. *: point of attachment. Cbz = O=C(OCc1ccccc1)*

Assays:
mdx mice = experiment: Noninvasive whole body tension (WBT) measurement of forward pulling tensions; assay type: in vivo
Excerpt: FIG. 18 presents individual “forward pulling tensions” (FPTs; upward deflections) recorded from a PDTC-treated mouse (Series 2) using the whole body tension (WBT) technique (Carlson and Makiejus, 1990). The rank order of FPTs from highest to lowest is indicated by the numbers in the figure. […] In the Series 2 experiments, WBT measurements were obtained from each of the saline-injected and PDTC-injected mice on days 0, 9, 21 and 40 of the experiment.
As a first step in examining the potential effects of PDTC treatment on WBT tension development, the slope of the decline in FPTs was evaluated for each recording session for each mouse examined in the Series 2 experiments (FIG. 19A, 19B). This measure essentially provides a “fatigue index” (FI) since the slope of the decline in FPTs is a direct measure of the average magnitude of the decline in FPT per individual pull for rank-ordered pulls number 2 through 10. If 10 individual pulls obtained during the recording session have identical magnitudes representing the highest FPT, then the FI equals 0. In contrast, a 50% reduction in FPT per pull would produce an FI equal to −0.5.
To examine the potential effect of PDTC treatment on FI in age matched adult mdx mice, a pre-treatment FU was obtained during a typical recording session from each of 10 mdx mice used in the Series 2 investigations (age 9.5 to 16 months at beginning of study). Five of the mice were subsequently treated with daily injections of vehicle (HEPES buffered Ringer's solution) and 5 of the mice were treated with daily injections of 50 mg/kg PDTC. Recordings for each of the mice were subsequently obtained on days 9, 21, and 40 of the treatment period (e.g., FIG. 19). To determine the potential effects of treatment on FI, the FIs obtained on days 9, 21, and 40 (e.g., FIG. 19) were each normalized to the pre-treatment FI for each of the 10 mice used in the study. […] A decrease in the FI indicating a reduction in the average loss of tension per pull during the course of the study would produce normalized FIs less than one, no change in FI would be associated with normalized FIs equal to 1.0, and increases in FI would produce normalized FIs greater than 1.0.
Mdx (C57 Bl10-mdx) and nondystrophic (C57Bl10-SnJ) mice were obtained from Jackson laboratories and bred under conditions approved by the Institutional Animal Care and Use Committee (IACUC). All studies were performed in accordance with the guidelines provided by the IACUC. Male and female PDTC treated mdx mice received daily intraperitoneal (ip) injections of 50 mg/kg pyrollidine dithiocarbamate (PDTC; Sigma P8765) dissolved in sterile-filtered (0.2 μm) HEPES-buffered Ringers solution (147.5 mM NaCl, 5 mM KCl, 2 mM CaCl2, 11 mM glucose, 5 mM Hepes, pH 7.35). Age- and gender-matched groups of vehicle-treated mice received corresponding injections of HEPES Ringers. See Carlson et al., 2005. The PDTC experiments were conducted on two series of mature adult mdx mice (9.5-16 month; 19-20 months) and on a series of young adult (1 month) mice. In each case, the mice in the experimental and vehicle-treated groups were matched according to age and gender with an equal number of males and females in each group. WBT tension measurements were obtained prior to initiating treatment and on multiple occasions following at least 3 weeks (20 days) of treatment.
A group of 30 day-old mdx mice were exposed to daily ip injections (30 day) of 40 mg/kg UDCA (Sigma #5127; 2 mg/ml; N=12 experimental) in an isotonic saline vehicle (1.02% NaCl, pH 8.4,) or a synthetic taurine derivative of UDCA (tauroursodeoxycholic acid, TUDCA, SpA Laboratorio Farmacologico, Cenate Sotto, Italy; 6 mg/ml; N=4 experimental) administered in a saline vehicle (NaCl 6 g/l, KCl 0.3 g/l, CaCl2 0.2 g/l, Na acetate 4 g/l, 300 mosM/l, pH 6.1).
WBT measurements were obtained as indicated in Examples 5 through 7 by placing an approximately 0.5 inch square piece of adhesive tape around the tail about 1 inch from the tip. […]

IκB-α and phospho-IκB-α = experiment: Western blot of phospho-IκB-α and IκB-α in costal diaphragm after proteasomal inhibition with MG132; assay type: in vivo, nondystrophic and mdx mice
Experimental: The influence of the proteasomal inhibitor MG132 on the cytosolic expression of IκB-α and Pi-IκB-α was determined by administering 5 month nondystrophic and mdx mice MG132 (1 mg/kg, intraperitoneal) or vehicle (DMSO) in vivo 2 h prior to euthanization and isolation of the diaphragm. The individual intact costal diaphragms from the MG132 group were then exposed to MG132 ([…] in HEPES Ringer) in vitro for another 2 h while the costal diaphragms from the vehicle group were exposed to HEPES Ringer and vehicle. This procedure of combining in vivo and in vitro exposure to MG was used to maximize inhibition of proteasomal degradation and facilitate the cytosolic accumulation of Pi-IκB-α and IκB-α in the MG132 treated preparations. […]
Cytosolic and nuclear extracts were obtained by homogenizing individual muscles at a concentration of 1 mg wet weight per 18 μl of low salt lysis buffer (LSLB: 10 mM HEPES, 10 mM KCl, 1.5 mM MgCl2, 0.1 mM EDTA, 0.1 mM EGTA, 1 mM dithiothreitol, 1.0 mg/ml benzamidine, 0.5 mM phenylmethylsulfonyl fluoride, 4.0 μl/ml protease inhibitor cocktail Sigma #8340, 10 μl/ml phosphatase inhibitor Sigma #P2850, pH 7.9. See Kumar et al. (2003); Carlson et al. (2005)). […] Pellets were subsequently washed twice (50 μl of LSLB) and resuspended in ice-cold high-salt lysis buffer (HSLB: 20 mM HEPES (pH 7.9), 420 mM NaCl, 1 mM EDTA, 1 mM EGTA, 25% glycerol, 1 mM dithiothreitol, 0.5 mM phenylmethylsulfonyl fluoride, 1.0 mg/ml benzamidine, 4 μl/ml protease inhibitor cocktail, 10 μl/ml phosphate inhibitor; 4 μl/mg wet […] and centrifuged (13,000 rpm, 6 min, 4° C.). The supernatant (nuclear extract) was stored at −80° C. Protein concentration was determined using the Bradford assay (Bio-Rad 500-0006) in a standard 96 well plate.
Muscle proteins and immunoprecipitates (20 μg) were separated by SDS-PAGE under reducing conditions and transferred to PVDF membranes (Bio-Rad). […] Equal loading of proteins for cytosolic and whole cell extracts was evaluated by developing a blot for GAPDH. […]

nuclear p65 activation = experiment: TransAM NF-κB ELISA of nuclear p65 activation in mdx costal diaphragm; assay type: in vivo, mdx mice
Experimental: Cytosolic and nuclear fractions were obtained from isolated costal diaphragm using techniques that were slightly modified from Kumar and Boriek (2003). The muscles were removed from vehicle and drug-treated euthanized mdx mice at the end of the treatment period, and were flash-frozen and stored at −80° C. for a period of 1 to 4 weeks. The muscles were then thawed and weighed before being homogenized on ice using a mortar and pestle in low salt lysis (LSL) buffer (1 mg muscle wet weight/18 μl solution; in mM: 10 HEPES, 10 KCl, 1.5 MgCl2, 0.1 EDTA, 0.1 EGTA, 1 dithiothreitol (DTT), 0.5 phenylmethylsulfonylfluoride (PMSF); 0.5 mg/ml benzamidine, 4.0 μl/ml protease inhibitor cocktail Sigma #8340 (PIC) to produce the following final concentrations—2.1 μg/ml leupeptin, 3.85 μg/ml aprotinin, 0.416 mM AEBSF (Sigma A8456), 16 μM bestatin, 6 μM pepstatin A, 5.6 μM E64; pH 7.9). To lyse the cells, the ground tissue was then subjected to 2 freeze-thaw cycles (5 min freeze on dry ice followed by thawing at room temperature), and was subsequently vortexed and centrifuged (13,000 rpm, 15 s). The supernatant cytosolic extract was immediately frozen (−80° C.) for subsequent analyses as needed, while the nuclear pellet was washed in 50 μl LSL (2 times) before being re-suspended on ice in a high salt nuclear extraction buffer (in mM: 20 HEPES, 420 NaCl, 1 EDTA, 1 EGTA, 1 DTT, 0.5 PMSF; 25% glycerol, 0.5 mg/ml benzamidine, 4.0 μl/ml PIC; pH 7.9) at a ratio of 4 μl of solution per mg muscle wet weight. Preparations were incubated on ice for 30 min and vortexed for 10 s every 5 min before being centrifuged (13,000 rpm, 6 min) at 4° C. The supernatant nuclear extract was then removed and frozen (−80° C.) for subsequent analyses. Potential contamination of nuclear extracts with cytoplasmic proteins was less than 5%. Protein determinations for each fraction were obtained using the Bradford assay.
The Trans-Am assay (Active Motif; Carlsbad, Calif.) was used to determine nuclear NF-κB activation in nuclear fractions which were applied to the 96 well ELISA plates at 2-20 μg protein. The p65 primary antibody (catalogue number 40096) was used to detect p65 bound to oligonucleotide in vehicle and drug-treated preparations in accordance with kit instructions. A nuclear extract from Jurkat cells was routinely run as a positive control in association with each set of control and experimental samples.
Horizontal dashed lines indicate average levels observed in nondystrophic, vehicle, and UDCA treated preparations as indicated. In each case, percent recovery is determined by dividing the mean improvement observed in the UDCA treated preparation (UDCA-vehicle) from the deficit observed in the vehicle-treated preparation (nondystrophic-vehicle mdx). Mdx mice were treated for 30 days beginning at 1 month of age. Horizontal dashed lines in (A) and (B) representing nondystrophic values were obtained from a cohort of nondystrophic mice at 2 months of age. […] The results were obtained from two separate groups of vehicle and UDCA treated preparations that were assayed using two different 96 well plates. For each plate, the absorbance for each sample was normalized to the average absorbance determined for the vehicle-treated preparations on that plate. […] Millman et al., 2007. N is the number of mice and preparations in each condition. Shown are the means and standard errors. […] indicate p<0.05 and p<0.01, respectively, between vehicle and UDCA treated preparations. […]

[1] = UDCA 30 days from 1 month of age
[2] = UDCA 30 days, (UDCA-vehicle)/(nondystrophic-vehicle mdx)

SMILES: C[C@H](CCC(=O)NCCS(=O)(=O)O)[C@H]1CC[C@H]2[C@@H]3[C@@H](O)C[C@@H]4C[C@H](O)CC[C@]4(C)[C@H]3CC[C@]12C [TUDCA, tauroursodeoxycholic acid]
- effectiveness compared with UDCA (mdx mice; daily ip 30 days in 30 day-old mdx mice, TUDCA 6 mg/ml, N=4): No differences

SMILES: CC(C)C[C@@H](C=O)NC(=O)[C@H](CC(C)C)NC(=O)[C@H](CC(C)C)NC(=O)OCc1ccccc1 [MG132, Z-leu-leu-leu-al] (Cbz-Leu-Leu-Leu-aldehyde)
- increase in proportion of phosphorylated IκB-α (IκB-α and phospho-IκB-α; mdx diaphragm cytosolic extracts, not significant): 1.3 fold
- expression of cytosolic IκB-α (IκB-α and phospho-IκB-α; nondystrophic and mdx preparations): not significantly increased
- proportion of phosphorylated IκB-α (IκB-α and phospho-IκB-α; nondystrophic diaphragm, cytosol and whole cell extracts, MG132 1 mg/kg ip 2 h then 50 mM in vitro 2 h, p<0.05): doubling

SMILES: C[C@H](CCC(=O)O)[C@H]1CC[C@H]2[C@@H]3[C@@H](O)C[C@@H]4C[C@H](O)CC[C@]4(C)[C@H]3CC[C@]12C [UDCA, ursodeoxycholic acid]
- recovery towards values in mature nondystrophic preparations (nuclear p65 activation; 30 day UDCA treatment): 42%
- reduction in nuclear p65 activation (nuclear p65 activation; 30 day UDCA treatment, p<0.05): 34%
- mean absorbance relative to vehicle-treated preparations (nuclear p65 activation; [1]): approximately 66%
- increase in WBT5 above vehicle-treated (mdx mice; [1]): about 21%
- increase in WBT10 above vehicle-treated (mdx mice; [1]): about 21%
- recovery of the dystrophic deficit in WBT5 (mdx mice; [2]): 27%
- recovery of the dystrophic deficit in WBT10 (mdx mice; [2]): 24%
